# Key:
# Test in all cases: relative viability (nuclei count vs DMSO), 5 days (fraction); higher = more cells survive
# TGX 221 + Palbociclib = compound: CC1=CN2C(=O)C=C(N=C2C(=C1)C(C)NC3=CC=CC=C3)N4CCOCC4 [TGX 221] + CC(=O)c1c(C)c2cnc(Nc3ccc(N4CCNCC4)cn3)nc2n(C2CCCC2)c1=O [Palbociclib] (partner 0.5 µM)
# Procedure, shortened: (§1)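 Relative viability equals treated-well nuclei counts divided by vehicle-well nuclei counts. Counts came from 4× images of lung cancer cell lines grown in 1536-well plates for 5 days after pin-tool dosing on the day after seeding. Dosing used one drug alone or a fixed anchor-drug dose plus five library-drug doses (not always all listed) in √10 steps, and values are medians of duplicate plates.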
# TGX 221 + Linsitinib = compound: CC1=CN2C(=O)C=C(N=C2C(=C1)C(C)NC3=CC=CC=C3)N4CCOCC4 [TGX 221] + C[C@]1(O)C[C@@H](c2nc(-c3ccc4ccc(-c5ccccc5)nc4c3)c3c(N)nccn32)C1 [Linsitinib] (partner 1 µM)
# Procedure, shortened: as §1
# TGX 221 + Vorinostat = compound: CC1=CN2C(=O)C=C(N=C2C(=C1)C(C)NC3=CC=CC=C3)N4CCOCC4 [TGX 221] + O=C(CCCCCCC(=O)Nc1ccccc1)NO [Vorinostat] (partner 1 µM)
# Procedure, shortened: as §1
# [1] = compound: O=C(CCCCCCNC(=O)c1cnc(N(c2ccccc2)c2ccccc2)nc1)NO [Ricolinostat] + C[C@]1(O)C[C@@H](c2nc(-c3ccc4ccc(-c5ccccc5)nc4c3)c3c(N)nccn32)C1 [Linsitinib] (partner 1 µM)
# Procedure, shortened: as §1
cell line,measurement,setting,value
NCI-H2347,relative viability,TGX 221 + Palbociclib; first compound 0.08 µM,0.423
same,relative viability,TGX 221 + Palbociclib; first compound 0.253 µM,0.427
same,relative viability,TGX 221 + Palbociclib; first compound 0.8 µM,0.465
same,relative viability,TGX 221 + Palbociclib; first compound 2.53 µM,0.391
same,relative viability,TGX 221 + Palbociclib; first compound 8 µM,0.415
same,relative viability,TGX 221 + Linsitinib; first compound 0.08 µM,0.931
same,relative viability,TGX 221 + Linsitinib; first compound 0.253 µM,0.972
same,relative viability,TGX 221 + Linsitinib; first compound 0.8 µM,0.936
same,relative viability,TGX 221 + Linsitinib; first compound 2.53 µM,0.885
same,relative viability,TGX 221 + Linsitinib; first compound 8 µM,0.786
same,relative viability,TGX 221 + Vorinostat; first compound 0.08 µM,0.745
same,relative viability,TGX 221 + Vorinostat; first compound 0.253 µM,0.506
same,relative viability,TGX 221 + Vorinostat; first compound 0.8 µM,0.478
same,relative viability,TGX 221 + Vorinostat; first compound 2.53 µM,0.618
same,relative viability,TGX 221 + Vorinostat; first compound 8 µM,0.465
same,relative viability,[1]; first compound 0.08 µM,0.832
same,relative viability,[1]; first compound 0.253 µM,0.92
same,relative viability,[1]; first compound 0.8 µM,0.876
same,relative viability,[1]; first compound 2.53 µM,0.906
NCI-H2405,relative viability,TGX 221 + Palbociclib; first compound 0.08 µM,0.482
same,relative viability,TGX 221 + Palbociclib; first compound 0.253 µM,0.484
same,relative viability,TGX 221 + Palbociclib; first compound 0.8 µM,0.504
same,relative viability,TGX 221 + Palbociclib; first compound 2.53 µM,0.456
same,relative viability,TGX 221 + Palbociclib; first compound 8 µM,0.482
same,relative viability,TGX 221 + Linsitinib; first compound 0.08 µM,0.595
same,relative viability,TGX 221 + Linsitinib; first compound 0.253 µM,0.698
same,relative viability,TGX 221 + Linsitinib; first compound 0.8 µM,0.639
same,relative viability,TGX 221 + Linsitinib; first compound 2.53 µM,0.697
same,relative viability,TGX 221 + Linsitinib; first compound 8 µM,0.573
same,relative viability,TGX 221 + Vorinostat; first compound 0.08 µM,0.87
same,relative viability,TGX 221 + Vorinostat; first compound 0.253 µM,0.928
same,relative viability,TGX 221 + Vorinostat; first compound 0.8 µM,0.941
same,relative viability,TGX 221 + Vorinostat; first compound 2.53 µM,0.92
same,relative viability,TGX 221 + Vorinostat; first compound 8 µM,0.895
same,relative viability,[1]; first compound 0.08 µM,0.515
same,relative viability,[1]; first compound 0.253 µM,0.93
same,relative viability,[1]; first compound 0.8 µM,1.05
same,relative viability,[1]; first compound 2.53 µM,1.1
NCI-H3122,relative viability,TGX 221 + Palbociclib; first compound 0.08 µM,0.168
same,relative viability,TGX 221 + Palbociclib; first compound 0.253 µM,0.154
same,relative viability,TGX 221 + Palbociclib; first compound 0.8 µM,0.208
same,relative viability,TGX 221 + Palbociclib; first compound 2.53 µM,0.169
same,relative viability,TGX 221 + Palbociclib; first compound 8 µM,0.184
same,relative viability,TGX 221 + Linsitinib; first compound 0.08 µM,1.01
same,relative viability,TGX 221 + Linsitinib; first compound 0.253 µM,1.05
same,relative viability,TGX 221 + Linsitinib; first compound 0.8 µM,1
same,relative viability,TGX 221 + Linsitinib; first compound 2.53 µM,1.02
same,relative viability,TGX 221 + Linsitinib; first compound 8 µM,0.986
same,relative viability,TGX 221 + Vorinostat; first compound 0.08 µM,1.02
same,relative viability,TGX 221 + Vorinostat; first compound 0.253 µM,0.823
same,relative viability,TGX 221 + Vorinostat; first compound 0.8 µM,1.08
same,relative viability,TGX 221 + Vorinostat; first compound 2.53 µM,0.969
same,relative viability,TGX 221 + Vorinostat; first compound 8 µM,1.04
same,relative viability,[1]; first compound 0.08 µM,1.01
same,relative viability,[1]; first compound 0.253 µM,1.02
same,relative viability,[1]; first compound 0.8 µM,1.13
same,relative viability,[1]; first compound 2.53 µM,1.05
PC-3 [JPC-3],relative viability,TGX 221 + Palbociclib; first compound 0.08 µM,0.522
same,relative viability,TGX 221 + Palbociclib; first compound 0.253 µM,0.516
same,relative viability,TGX 221 + Palbociclib; first compound 0.8 µM,0.541
same,relative viability,TGX 221 + Palbociclib; first compound 2.53 µM,0.499
same,relative viability,TGX 221 + Palbociclib; first compound 8 µM,0.566
same,relative viability,TGX 221 + Linsitinib; first compound 0.08 µM,0.963
same,relative viability,TGX 221 + Linsitinib; first compound 0.253 µM,0.973
same,relative viability,TGX 221 + Linsitinib; first compound 0.8 µM,0.997
same,relative viability,TGX 221 + Linsitinib; first compound 2.53 µM,0.922
same,relative viability,TGX 221 + Linsitinib; first compound 8 µM,0.918
same,relative viability,TGX 221 + Vorinostat; first compound 0.08 µM,0.719
same,relative viability,TGX 221 + Vorinostat; first compound 0.253 µM,0.715
same,relative viability,TGX 221 + Vorinostat; first compound 0.8 µM,0.839
same,relative viability,TGX 221 + Vorinostat; first compound 2.53 µM,0.655
same,relative viability,TGX 221 + Vorinostat; first compound 8 µM,0.881
same,relative viability,[1]; first compound 0.08 µM,0.894
same,relative viability,[1]; first compound 0.253 µM,0.925
same,relative viability,[1]; first compound 0.8 µM,0.9
same,relative viability,[1]; first compound 2.53 µM,0.793
PC-14,relative viability,TGX 221 + Palbociclib; first compound 0.08 µM,0.539
same,relative viability,TGX 221 + Palbociclib; first compound 0.253 µM,0.408
same,relative viability,TGX 221 + Palbociclib; first compound 0.8 µM,0.543
same,relative viability,TGX 221 + Palbociclib; first compound 2.53 µM,0.577
same,relative viability,TGX 221 + Palbociclib; first compound 8 µM,0.397
same,relative viability,TGX 221 + Linsitinib; first compound 0.08 µM,0.95
same,relative viability,TGX 221 + Linsitinib; first compound 0.253 µM,0.866
same,relative viability,TGX 221 + Linsitinib; first compound 0.8 µM,0.898
same,relative viability,TGX 221 + Linsitinib; first compound 2.53 µM,0.904
same,relative viability,TGX 221 + Linsitinib; first compound 8 µM,0.874
same,relative viability,TGX 221 + Vorinostat; first compound 0.08 µM,0.682
same,relative viability,TGX 221 + Vorinostat; first compound 0.253 µM,0.626
same,relative viability,TGX 221 + Vorinostat; first compound 0.8 µM,0.687
same,relative viability,TGX 221 + Vorinostat; first compound 2.53 µM,0.748
same,relative viability,TGX 221 + Vorinostat; first compound 8 µM,0.662
same,relative viability,[1]; first compound 0.08 µM,0.928
same,relative viability,[1]; first compound 0.253 µM,0.897
same,relative viability,[1]; first compound 0.8 µM,0.907
same,relative viability,[1]; first compound 2.53 µM,0.763

# Source: the supplement of paper PMC10307832
